Reference: ChEMBL document CHEMBL4699577, “Highly Oxygenated Caryophyllene-Type Sesquiterpenes from a Plant-Associated Fungus, Pestalotiopsis hainanensis, and Their Biosynthetic Gene Cluster” (J Nat Prod, 2020)
pIC50: −log10 of the molar value.

Legend:
[1] = system: HL-60; assay: Growth inhibition of human HL-60 cells after 96 hrs by MTT assay; type: functional, cell-based; conditions: HL-60, 96 h
[2] = system: THP-1; assay: Growth inhibition of human THP-1 cells after 96 hrs by MTT assay; type: functional, cell-based; conditions: THP-1, 96 h

## CO[C@@H]1[C@H]2[C@H](O)O[C@@]3([C@@H](OC(C)=O)C/C(C)=C/[C@H]1OC)[C@@H]2CC3(C)C
[1]
  pIC50: 5.21
[2]
  pIC50: 5.70
